Results on 2 molecules are retold here after patent US9051300B2, “Herbicides” (Syngenta Limited, priority 2009, dated 2015).

Format in all cases: in vivo
Data set [1] has as its system Winter Wheat variety 'Hereward'. The experiment in a line: Crop damage to winter wheat seed treated with safener cloquintocet mexyl, post-emergence spray. The following applies: 250 g/ha, seed treated with cloquintocet mexyl 0.5 g/kg seed, evaluated after 13 days, 100=total damage, 0=no damage. How it is done:
Seeds of the Winter Wheat variety ‘Hereward’ were seed treated with a wettable powder formulation of the cereal herbicide safener, cloquintocet mexyl, at a rate of 0.5 grams per kilogram of dry seed prior to the initiation of glasshouse testing. One seed was sown per 1.5 inch plastic pot into a sandy loam soil at a depth of 1 cm, 8 days prior to application of the test compounds and was watered and grown under controlled conditions in a glasshouse (at 24/16° C., day/night; 14 hours light; 65% humidity). The plants were sprayed post-emergence with an aqueous spray solution derived from the formulation of the technical active ingredient in acetone/water (50:50) solution containing 0.5% Tween 20 (polyoxyethylene sorbitan monolaurate, CAS RN 9005-64-5). The test plants were then grown in a glasshouse under controlled conditions in a glasshouse (at 24/16° C., day/night; 14 hours light; 65% humidity) and watered twice daily. After 13 days for pre and post-emergence, the test was evaluated (100=total damage to plant; 0=no damage to plant).

In data set [2] the test system is Lolium perenne (LOLPE). Briefly: Pre-emergence herbicidal activity, glasshouse pot test. Conditions: rate not printed (columns shifted), evaluated after 13 days, 100=total damage to plant, 0=no damage. How it is done:
(§1) Seeds of a variety of test species are sown in standard soil in pots. After cultivation for one day (pre-emergence) or after 8 days cultivation (post-emergence) under controlled conditions in a glasshouse (at 24/16° C., day/night; 14 hours light; 65% humidity), the plants are sprayed with an aqueous spray solution derived from the formulation of the technical active ingredient in acetone/water (50:50) solution containing 0.5% Tween 20 (polyoxyethylene sorbitan monolaurate, CAS RN 9005-64-5). The test plants are then grown in a glasshouse under controlled conditions in a glasshouse (at 24/16° C., day/night; 14 hours light; 65% humidity) and watered twice daily. After 13 days for pre and post-emergence, the test is evaluated (100=total damage to plant; 0=no damage to plant). Lolium perenne (LOLPE), Alopecurus myosuroides (ALOMY), Echinochloa crus-galli (ECHCG), Avena fatua (AVEFA) Pre-Emergence Activity

In data set [3] the test system is Echinochloa crus-galli (ECHCG). Described as above. The following applies: rate not printed (columns shifted), evaluated after 13 days, 100=total damage to plant, 0=no damage. The method, then:
as §1

Data set [4] relates to Avena fatua (AVEFA). The data set is described as above. The following applies: rate not printed (columns shifted), evaluated after 13 days, 100=total damage to plant, 0=no damage. The method, then: as §1
Data set [5] has as its system Alopecurus myosuroides (ALOMY). The data set is described as above. The following applies: rate not printed (columns shifted), evaluated after 13 days, 100=total damage to plant, 0=no damage. How it is done: as §1
In data set [6] the test system is Lolium perenne (LOLPE). The experiment in a line: Post-emergence herbicidal activity, glasshouse pot test. The following applies: 312 h, evaluated after 13 days, 100=total damage to plant, 0=no damage. The method, then:
as §1, with “Post-Emergence” for “Pre-Emergence”

For data set [7], the system named is Echinochloa crus-galli (ECHCG). Described as above. Conditions: 312 h, evaluated after 13 days, 100=total damage to plant, 0=no damage. The method, then: as §1, with “Post-Emergence” for “Pre-Emergence”
The test system of data set [8] is Avena fatua (AVEFA). The description is as above. The following applies: 312 h, evaluated after 13 days, 100=total damage to plant, 0=no damage. The method, then:
as §1, with “Post-Emergence” for “Pre-Emergence”

In data set [9] the test system is Alopecurus myosuroides (ALOMY). The description is as above. Conditions: 312 h, evaluated after 13 days, 100=total damage to plant, 0=no damage. How it is done:
as §1, with “Post-Emergence” for “Pre-Emergence”

For data set [10], the system named is Winter Wheat variety 'Hereward'. The experiment in a line: Crop damage to winter wheat, post-emergence spray. Conditions: 250 g/ha, no safener, evaluated after 13 days, 100=total damage to plant, 0=no damage. How it is done:
Seeds of the Winter Wheat variety ‘Hereward’ were sown in standard soil in pots. After 8 days cultivation under controlled conditions in a glasshouse (at 24/16° C., day/night; 14 hours light; 65% humidity), the plants were sprayed post-emergence with an aqueous spray solution derived from the formulation of the technical active ingredient in acetone/water (50:50) solution containing 0.5% Tween 20 (polyoxyethylene sorbitan monolaurate, CAS RN 9005-64-5). The test plants were then grown in a glasshouse under controlled conditions in a glasshouse (at 24/16° C., day/night; 14 hours light; 65% humidity) and watered twice daily. After 13 days for pre and post-emergence, the test was evaluated (100=total damage to plant; 0=no damage to plant).

`Cc1sc(-c2ccc(Cl)cc2)nc1C1C(=O)C/C(=C\C2CCOCC2)C1=O` (centres unmarked) [Compound A24]: in data set [1], the “Winter Wheat (Hereward) + cloquintocet mexyl (damage to plant)” value amounted to 0. Further, the “Pre-Emergence Activity LOLPE (damage to plant)” value in the data set with Lolium perenne (LOLPE) [2] stood at 100. Further, in data set [3], the “Pre-Emergence Activity ECHCG (damage to plant)” value was found to be 100. Further, the “Pre-Emergence Activity AVEFA (damage to plant)” value in the data set with Avena fatua (AVEFA) [4] was found to be 60. In addition, the “Pre-Emergence Activity ALOMY (damage to plant)” value in data set [5] came out at 60. Moreover, the pest or weed control at 250 g/ha with Lolium perenne (LOLPE) [6] is 90%; in data set [7], 100%; with Avena fatua (AVEFA) [8] it was 90%; in data set [9], 100%. For the same molecule, the “Winter Wheat (Hereward) (damage to plant)” value in data set [10] was found to be 70.

Turning to `Cc1cc(-c2ccc(Cl)cc2)nn1C1C(=O)CC(CC2CCOCC2)C1=O` (centres unmarked) [Compound A25], the “Winter Wheat (Hereward) + cloquintocet mexyl (damage to plant)” value in data set [1] turned out to be 40. In addition, the “Pre-Emergence Activity LOLPE (damage to plant)” value with Lolium perenne (LOLPE) [2] is 90. In data set [3], the “Pre-Emergence Activity ECHCG (damage to plant)” value came to 100. The “Pre-Emergence Activity AVEFA (damage to plant)” value in the data set on Avena fatua (AVEFA) [4] turned out to be 70. For the same molecule, the “Pre-Emergence Activity ALOMY (damage to plant)” value in data set [5] was found to be 70. Also, the pest or weed control at 250 g/ha (in the data set with Lolium perenne (LOLPE) [6]; in [7]; in the data set on Avena fatua (AVEFA) [8]; in [9]) was 100% throughout. Further, the “Winter Wheat (Hereward) (damage to plant)” value in data set [10] is recorded as 80.

In general, pest or weed control refers to how far the test organism was held down. Read a high pest or weed control as a strong effect.
